Laboratory results taken from ChEMBL document CHEMBL2440056, “α-Glucosidase-inhibitory iminosugars from the leaves of Suregada glomerulata” (Bioorg Med Chem, 2013).

Assays:
[1] = Inhibition of rat intestinal alpha-glucosidase using sucrose as substrate assessed as glucose formation incubated for 10 mins prior to substrate addition measured after 30 mins by glucose oxidase method
Mus musculus [2] = assay: Hypoglycemic effect in starch-challenged ICR mouse assessed as blood glucose level at 10 mg/kg, po after 60 mins by glucose oxidase method (reference value: 243.0 +/- 29.0 mg/dL); assay type: functional
Mus musculus [3] = assay: Hypoglycemic effect in sucrose-challenged ICR mouse assessed as blood glucose level at 10 mg/kg, po after 120 mins by glucose oxidase method (reference value: 137.8 +/- 14.5 mg/dL); assay type: functional
Mus musculus [4] = assay: Hypoglycemic effect in starch-challenged ICR mouse assessed as blood glucose level at 10 mg/kg, po after 120 mins by glucose oxidase method (reference value: 174.2 +/- 22.9 mg/dL); assay type: functional
Mus musculus [5] = assay: Hypoglycemic effect in sucrose-challenged ICR mouse assessed as blood glucose level at 10 mg/kg, po after 30 mins by glucose oxidase method (reference value: 187.4 +/- 21.6 mg/dL); assay type: functional
Mus musculus [6] = assay: Hypoglycemic effect in sucrose-challenged ICR mouse assessed as blood glucose level at 10 mg/kg, po after 60 mins by glucose oxidase method (reference value: 183.3 +/- 29.1 mg/dL); assay type: functional
Mus musculus [7] = assay: Hypoglycemic effect in starch-challenged ICR mouse assessed as glucose AUC at 10 mg/kg, po by glucose oxidase method (reference value: 430.1 +/- 44.7 mg.hr/dL); assay type: functional, organism-based; set-up: dose 10 mg/kg
Mus musculus [8] = assay: Hypoglycemic effect in sucrose-challenged ICR mouse assessed as glucose AUC at 10 mg/kg, po by glucose oxidase method (reference value: 323.2 +/- 37.2 mg.hr/dL); assay type: functional, organism-based; set-up: dose 10 mg/kg
Mus musculus [9] = assay: Hypoglycemic effect in starch-challenged ICR mouse assessed as blood glucose level at 10 mg/kg, po after 30 mins by glucose oxidase method (reference value: 278.9 +/- 33.5 mg/dL); assay type: functional

Compound | IC50 [1] | Activity (Mus musculus [2]) | Activity (Mus musculus [3]) | Activity (Mus musculus [4]) | Activity (Mus musculus [5]) | Activity (Mus musculus [6]) | AUC (Mus musculus [7]) | AUC (Mus musculus [8]) | Activity (Mus musculus [9])
CN1[C@H](CO)[C@@H](O)C[C@@H](O)[C@@H]1CO | 22.2 µM | – | – | – | – | – | – | – | –
OCCCCCCCC[C@H]1N[C@H](CO)[C@@H](O)[C@H](O)[C@H]1O | 5.53 µM | – | – | – | – | – | – | – | –
OC[C@@H]1N[C@H](CO)[C@@H](O)[C@H](O)[C@H]1O | 24.3 µM | – | – | – | – | – | – | – | –
CCCCN1[C@H](CO[C@@H]2O[C@H](CO)[C@@H](O)[C@H](O)[C@H]2O)[C@H](O)[C@@H](O)[C@H](O)[C@H]1CO | 22.9 µM | – | – | – | – | – | – | – | –
C[C@H]1O[C@H](O[C@H]2[C@H](O)[C@@H](O)[C@@H](O[C@H]3[C@H](O)[C@@H](O)C(O)O[C@@H]3CO)O[C@@H]2CO)[C@H](O)[C@@H](O)[C@@H]1N[C@H]1C=C(CO)[C@@H](O)[C@H](O)[C@H]1O (stereo partly specified) [ACARBOSE] | 0.54 µM | 187.7 mg/dL | 111.9 mg/dL | 177.5 mg/dL | 114.6 mg/dL | 118.4 mg/dL | 3.34e+06 ng·h/mL | 2.23e+06 ng·h/mL | 164.8 mg/dL
OC[C@@H](O)[C@H]1N[C@H](CO)[C@@H](O)[C@@H]1O | 0.92 µM | 216.2 mg/dL | 136.7 mg/dL | 150.3 mg/dL | 179 mg/dL | 147.3 mg/dL | 3.9e+06 ng·h/mL | 2.94e+06 ng·h/mL | 262.8 mg/dL
OC[C@H]1N[C@H](CO[C@H]2O[C@H](CO)[C@@H](O)[C@H](O)[C@H]2O)[C@H](O)[C@@H](O)[C@@H]1O | 38.6 µM | – | – | – | – | – | – | – | –
OC[C@H]1N[C@H](CO[C@@H]2O[C@H](CO)[C@@H](O)[C@H](O)[C@H]2O)[C@H](O)[C@@H](O)[C@@H]1O | 4.22 µM | 204.1 mg/dL | 133.3 mg/dL | 146.8 mg/dL | 130.8 mg/dL | 135.1 mg/dL | 3.41e+06 ng·h/mL | 2.58e+06 ng·h/mL | 187.1 mg/dL
CN1[C@H](CO[C@@H]2O[C@H](CO)[C@@H](O)[C@H](O)[C@H]2O)[C@H](O)[C@@H](O)[C@H](O)[C@H]1CO | 24.3 µM | – | – | – | – | – | – | – | –

Continued, in another order:

IC50 [1] | Compound | Activity (Mus musculus [2]) | Activity (Mus musculus [3]) | Activity (Mus musculus [4]) | Activity (Mus musculus [5]) | Activity (Mus musculus [6]) | AUC (Mus musculus [7]) | AUC (Mus musculus [8]) | Activity (Mus musculus [9])
0.72 µM | C[C@@H]1[C@H](O)[C@@H](O)[C@H](O)[C@@H](CO)N1C | – | – | – | – | – | – | – | –
22.1 µM | C[C@H]1N[C@H](CO)[C@@H](O)[C@H](O)[C@H]1O | – | – | – | – | – | – | – | –
0.09 µM | OC[C@H]1N[C@H](CO)[C@@H](O)[C@H](O)[C@H]1O | 176.4 mg/dL | 136.4 mg/dL | 161.2 mg/dL | 126 mg/dL | 149.9 mg/dL | 2.99e+06 ng·h/mL | 2.68e+06 ng·h/mL | 129.3 mg/dL
24.9 µM | OC[C@H]1N[C@H](CO)[C@@H](O)[C@@H](O)[C@H]1O | – | – | – | – | – | – | – | –
0.08 µM | CN1[C@H](CO)[C@H](O)[C@@H](O)[C@H](O)[C@H]1CO | 144.8 mg/dL | 115.6 mg/dL | 141.2 mg/dL | 121.4 mg/dL | 114 mg/dL | 2.72e+06 ng·h/mL | 2.28e+06 ng·h/mL | 141 mg/dL
20 µM | CN1[C@H](CO)[C@H](O)C[C@H](O)[C@H]1CO | – | – | – | – | – | – | – | –
19.2 µM | OC[C@@H]1N[C@H](CO)[C@@H](O)[C@H](O)[C@@H]1O | – | – | – | – | – | – | – | –
